Measurements from patent US10071974B2, “Morpholine and 1,4-oxazepane amides as somatostatin receptor subtype 4 (SSTR4) agonists” (Boehringer Ingelheim International GmbH, priority 2014, dated 2018).

What was measured:
in vitro = conditions: human, microsomes, pH 7.6
[1] = target: human Somatostatin 4 Receptor (SSTR4) (Homo sapiens (Human), UniProt P31391); assay: cAMP assay with human somatostatin 4 receptor (hSSTR4 expressing H4 cells); assay type: cell-based; conditions: read-out: SSTR4 agonism EC50
human SSTR3 = human SSTR3 (Homo sapiens (Human), UniProt P32745); assay: Radioligand binding assay, CHO cell membranes expressing recombinant human SSTR3
Excerpt: (§1) Radioligand Binding Assays
(§2) Method description for binding assays with human Somatostatin receptors by use of CHO cell membranes expressing recombinant human SSTR1 or human SSTR2 or human SSTR3 or human SSTR4 or human SSTR5
(§3) Receptor binding assays refer to a technique in which labeled receptor ligands are used to detect binding to a receptor. In competition experiments test compounds, which are not labeled, compete with the binding side of a labeled ligand. The displacement of the labeled ligand by the test compound leads to a decreased signal.
(§4) For the binding experiments 200 μL of membrane homogenate from one of the following protein amounts is used: hSSTR1 (40 μg/well); hSSTR2 (25 μg/well); hSSTR3 (1.5 μg/well); hSSTR4 (0.5 μg/well); hSSTR5 (25 μg/well). The homogenate is incubated with 0.05 nM of radioligand ([3-125I-Tyr]-Somatostatin-(1-14)) in addition to increasing concentrations of a test compound or vehicle (100% binding) in a total volume of 250 μL using a Hepes buffer (10 mM, EDTA 1 mM, MgCl2 5 mM, pH7.6, BSA 0.5%, Bacitracin 0.003%, DMSO 1%) for 180 min at room temperature. The incubation is terminated by filtration with ice cold NaCl 0.9% through polyethyleneimine treated (0.3%) GF/B glass fiber filters using a cell harvester. The protein-bound radioactivity is measured in a suitable reader. The non-specific binding is defined as radioactivity bound in the presence of 1 μM Somatostatin-14 during the incubation period.
(§5) The analysis of the concentration-binding curves is performed by computer-assisted nonlinear least square curve fitting method using the model of one receptor binding site.
(§6) Selectivity data was obtained with the aid of the above described radioligand binding assays.

human SSTR5 = human SSTR5 (Homo sapiens (Human), UniProt P35346); assay: Radioligand binding assay, CHO cell membranes expressing recombinant human SSTR5
Excerpt: as §1, §2, §3, §4, §5, §6

human SSTR2 = human SSTR2 (Homo sapiens (Human), UniProt P30874); assay: Radioligand binding assay, CHO cell membranes expressing recombinant human SSTR2
Excerpt: as §1, §2, §3, §4, §5, §6

human SSTR1 = human SSTR1 (Homo sapiens (Human), UniProt P30872); assay: Radioligand binding assay, CHO cell membranes expressing recombinant human SSTR1
Excerpt: as §1, §2, §3, §4, §5, §6

human SSTR4 = human SSTR4 (Homo sapiens (Human), UniProt P31391); assay: Radioligand binding assay, CHO cell membranes expressing recombinant human SSTR4
Excerpt: as §1, §2, §3, §4, §5, §6

human SSTR2, sequence (P30874 whole entry): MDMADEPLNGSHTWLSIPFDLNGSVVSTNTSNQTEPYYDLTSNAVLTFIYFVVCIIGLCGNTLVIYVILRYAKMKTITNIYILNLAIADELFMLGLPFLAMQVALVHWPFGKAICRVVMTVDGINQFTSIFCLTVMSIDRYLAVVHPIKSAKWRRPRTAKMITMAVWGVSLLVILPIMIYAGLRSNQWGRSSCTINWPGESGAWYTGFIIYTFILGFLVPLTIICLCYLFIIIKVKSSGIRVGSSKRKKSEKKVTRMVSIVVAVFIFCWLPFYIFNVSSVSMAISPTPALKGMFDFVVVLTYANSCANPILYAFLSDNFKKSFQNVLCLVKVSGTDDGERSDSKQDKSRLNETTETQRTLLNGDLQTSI
human Somatostatin 4 Receptor (SSTR4), sequence (P31391 whole entry): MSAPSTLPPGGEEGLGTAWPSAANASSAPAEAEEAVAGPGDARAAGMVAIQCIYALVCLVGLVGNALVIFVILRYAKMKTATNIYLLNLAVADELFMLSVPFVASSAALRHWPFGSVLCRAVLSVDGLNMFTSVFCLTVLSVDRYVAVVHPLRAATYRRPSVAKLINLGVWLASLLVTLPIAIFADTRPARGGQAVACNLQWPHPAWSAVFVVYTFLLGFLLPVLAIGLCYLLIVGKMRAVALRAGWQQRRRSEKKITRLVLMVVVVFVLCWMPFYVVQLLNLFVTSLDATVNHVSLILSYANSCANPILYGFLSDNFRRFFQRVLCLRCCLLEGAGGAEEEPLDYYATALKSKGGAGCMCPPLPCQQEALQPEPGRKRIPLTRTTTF
human SSTR4, sequence (P31391 whole entry): as above
human SSTR5, sequence (P35346 whole entry): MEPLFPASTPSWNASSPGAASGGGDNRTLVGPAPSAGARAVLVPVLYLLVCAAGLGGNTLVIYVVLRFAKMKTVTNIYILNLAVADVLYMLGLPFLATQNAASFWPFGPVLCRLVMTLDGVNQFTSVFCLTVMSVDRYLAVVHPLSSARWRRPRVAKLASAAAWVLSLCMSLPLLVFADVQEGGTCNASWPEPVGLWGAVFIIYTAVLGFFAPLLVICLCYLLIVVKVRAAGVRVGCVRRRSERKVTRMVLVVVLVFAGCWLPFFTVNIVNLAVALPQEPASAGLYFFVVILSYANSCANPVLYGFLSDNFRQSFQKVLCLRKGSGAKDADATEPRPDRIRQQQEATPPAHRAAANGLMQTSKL
human SSTR3, sequence (P32745 whole entry): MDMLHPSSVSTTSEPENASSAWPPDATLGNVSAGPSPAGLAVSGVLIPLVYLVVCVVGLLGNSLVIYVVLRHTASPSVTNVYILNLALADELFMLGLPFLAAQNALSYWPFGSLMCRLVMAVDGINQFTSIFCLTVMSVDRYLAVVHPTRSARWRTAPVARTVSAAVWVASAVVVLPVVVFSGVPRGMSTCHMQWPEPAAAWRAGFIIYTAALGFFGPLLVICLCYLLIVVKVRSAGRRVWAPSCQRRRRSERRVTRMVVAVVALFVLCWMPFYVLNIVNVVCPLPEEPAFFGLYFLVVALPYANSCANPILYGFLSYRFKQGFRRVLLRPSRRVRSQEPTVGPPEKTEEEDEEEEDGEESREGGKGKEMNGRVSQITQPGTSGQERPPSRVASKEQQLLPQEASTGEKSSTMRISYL
human SSTR1, sequence (P30872 whole entry): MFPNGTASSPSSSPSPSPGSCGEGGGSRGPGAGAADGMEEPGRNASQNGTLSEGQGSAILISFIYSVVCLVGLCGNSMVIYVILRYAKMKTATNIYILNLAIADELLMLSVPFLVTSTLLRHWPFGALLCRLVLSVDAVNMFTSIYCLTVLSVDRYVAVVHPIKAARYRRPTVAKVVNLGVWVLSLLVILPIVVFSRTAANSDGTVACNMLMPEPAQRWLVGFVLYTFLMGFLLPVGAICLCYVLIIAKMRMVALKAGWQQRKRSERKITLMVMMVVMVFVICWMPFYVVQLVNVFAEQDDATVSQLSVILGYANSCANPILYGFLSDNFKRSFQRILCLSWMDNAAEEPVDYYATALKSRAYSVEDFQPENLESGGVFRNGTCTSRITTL

SMILES | half-life at 1 μM (in vitro) [h] | EC50 [1] [nM] | other results
Cn1nc(C(C)(C)NC(=O)C2CNCCOC2)c2ccccc21 (racemic) [Example 20] | > 2.17 | 3.9 | –
Cn1nc(C(C)(C)NC(=O)C2CNCCCO2)c2ccccc21 (racemic) [Example 23] | > 2.17 | 36.5 | –
Cn1nc(C(C)(C)NC(=O)C2CCNCCO2)c2ccccc21 (racemic) [Example 26] | > 2.17 | 61.3 | –
Cc1nnc(C(C)(C)NC(=O)C2CNCCOC2)c2ccccc12 (racemic) [Example 37] | > 2.17 | 11.7 | –
Cc1cc2ccccc2c(C(C)(C)NC(=O)C2CNCCOC2)n1 (racemic) [Example 44] | > 2.17 | 7 | –
Cc1cccn2c(C(C)(C)NC(=O)C3CNCCOC3)ncc12 (racemic) [Example 116] | > 2.17 | 9.3 | –
Cc1cccn2c(C(C)(C)NC(=O)C3CNCCOC3)nc(C)c12 (racemic) [Example 128] | > 2.17 | 5 | –
Cn1nc(C(C)(C)NC(=O)C2CNCCOC2)c2ccccc21 (single isomer, unassigned) [Example 21] | > 2.17 | 3.2 | Ki (human SSTR3): 8620 nM; Ki (human SSTR5): 9750 nM; Ki (human SSTR2): 9600 nM; Ki (human SSTR1): 9450 nM; Ki (human SSTR4): 89.2 nM
Cn1nc(C(C)(C)NC(=O)C2CNCCCO2)c2ccccc21 (single isomer, unassigned) [Example 24] | > 2.17 | 36.2 | Ki (human SSTR3): 8620 nM; Ki (human SSTR5): 9750 nM; Ki (human SSTR2): 9600 nM; Ki (human SSTR1): 9450 nM; Ki (human SSTR4): 523 nM
Cn1nc(C(C)(C)NC(=O)C2CCNCCO2)c2ccccc21 (single isomer, unassigned) [Example 27] | > 2.17 | 55.8 | –
Cc1cccc2c(C(C)(C)NC(=O)C3CNCCOC3)cnn12 (single isomer, unassigned) [Example 34] | > 2.17 | 5.7 | –
Cc1ncc(C(C)(C)NC(=O)C2CNCCOC2)c2ccccc12 (single isomer, unassigned) [Example 41] | > 2.17 | 0.7 | –
Cc1cc2ccccc2c(C(C)(C)NC(=O)C2CNCCOC2)n1 (single isomer, unassigned) [Example 46] | > 2.17 | 3.4 | –
Cc1cc2ccccc2c(C(C)(C)NC(=O)C2CNCCCO2)n1 (single isomer, unassigned) [Example 48] | > 2.17 | 18.9 | –
Cc1cccc2c(C(C)(C)NC(=O)C3CNCCOC3)noc12 (single isomer, unassigned) [Example 55] | > 2.17 | 2.9 | –
Cc1cccc2c(C(C)(C)NC(=O)C3CNCCOC3)n[nH]c12 (single isomer, unassigned) [Example 60] | > 2.17 | 1.3 | –
Cn1nc(C(C)(C)NC(=O)C2CNCCOC2)c2cccc(F)c21 (single isomer, unassigned) [Example 77] | > 2.17 | 5.1 | –
Cn1nc(C(C)(C)NC(=O)C2CNCCOC2)c2cccc(Cl)c21 (single isomer, unassigned) [Example 82] | > 2.17 | 3 | –
Cc1cccc2c(C(C)(C)NC(=O)C3CNCCOC3)nn(C)c12 (single isomer, unassigned) [Example 85] | > 2.17 | 2 | –

SMILES | half-life at 1 μM (in vitro) [h] | EC50 [1] [nM] | other results
CC(C)(NC(=O)C1CNCCOC1)c1n[nH]c2c(F)cccc12 (single isomer, unassigned) [Example 89] | > 2.17 | 3.1 | –
CC(C)(NC(=O)C1CNCCOC1)c1n[nH]c2c(Cl)cccc12 (single isomer, unassigned) [Example 93] | > 2.17 | 1.4 | –
Cc1cccn2c(C(C)(C)NC(=O)C3CNCCOC3)ncc12 (single isomer, unassigned) [Example 117] | > 2.17 | 2.6 | –
CC(C)(NC(=O)C1CNCCOC1)c1ncc2c(Cl)cccn12 (single isomer, unassigned) [Example 120] | > 2.17 | 5.9 | –
Cc1cccn2c(C(C)(C)NC(=O)C3CNCCOC3)ccc12 (single isomer, unassigned) [Example 136] | > 2.17 | 3.7 | –
Cc1cccn2c(C(C)(C)NC(=O)C3CNCCCO3)ncc12 (single isomer, unassigned) [Example 145] | > 2.17 | 29.1 | –
CC(C)(NC(=O)[C@H]1CNCCO1)c1cccc2ncccc12 [Example 8] | – | 258 | –
CC(C)(COc1cnccc1C(F)(F)F)NC(=O)[C@@H]1CNCCO1 [Example 9] | – | 190 | –
C[C@H](NC(=O)[C@@H]1CNCCO1)c1cccc2ccccc12 [Example 10] | – | 51.2 | –
CC(C)(NC(=O)[C@@H]1CNCCO1)c1ccnc2ccccc12 [Example 11] | – | 26.3 | –
CC(C)(NC(=O)C1CNCCOC1)c1nc2ccc(Cl)cc2[nH]1 (centres unmarked) [Example 13] | – | 356 | –
CC(C)(NC(=O)[C@@H]1CNCCO1)c1nc2ccc(Cl)cc2[nH]1 [Example 14] | – | 796 | –
Cc1ccccc1OCC(C)(C)NC(=O)[C@@H]1CNCCO1 [Example 15] | – | 244 | –
Cn1nc(C(C)(C)NC(=O)[C@@H]2CNCCO2)c2ccccc21 [Example 19] | > 2.17 | 13.3 | Ki (human SSTR3): 8710 nM; Ki (human SSTR5): 9860 nM; Ki (human SSTR2): 9630 nM; Ki (human SSTR1): 9010 nM; Ki (human SSTR4): 194 nM
Cn1nc(C(C)(C)NC(=O)[C@@H]2CNCCO2)c2c(F)cccc21 [Example 29] | – | 21.6 | –
Cn1nc(C(C)(C)NC(=O)[C@@H]2CNCCO2)c2ccc(F)cc21 [Example 30] | > 2.17 | 13.1 | –
Cn1nc(C(C)(C)NC(=O)[C@@H]2CNCCO2)c2cccc(C(F)(F)F)c21 [Example 31] | – | 52.7 | –
Cc1cccc2c(C(C)(C)NC(=O)[C@@H]3CNCCO3)cnn12 [Example 32] | – | 10.9 | –
Cc1nnc(C(C)(C)NC(=O)[C@@H]2CNCCO2)c2ccccc12 [Example 36] | – | 25.4 | –

SMILES | half-life at 1 μM (in vitro) [h] | EC50 [1] [nM] | other results
Cc1ncc(C(C)(C)NC(=O)[C@@H]2CNCCO2)c2ccccc12 [Example 38] | > 2.17 | 1.3 | –
Cc1ncc(C(C)(C)NC(=O)[C@H]2CNCCO2)c2ccccc12 [Example 39] | – | 180 | –
Cc1cc2ccccc2c(C(C)(C)NC(=O)[C@@H]2CNCCO2)n1 [Example 43] | 1.83 | – | –
Cc1cccc2c(C(C)(C)NC(=O)[C@@H]3CNCCO3)n[nH]c12 [Example 57] | > 2.17 | 2.4 | –
CC(C)(NC(=O)[C@@H]1CNCCO1)c1noc2c(F)cccc12 [Example 61] | – | 147 | –
CC(C)(NC(=O)[C@@H]1CNCCO1)c1noc2c(Cl)cccc12 [Example 71] | – | 35.1 | –
CC(C)(NC(=O)[C@@H]1CNCCO1)c1n[nH]c2c(F)cccc12 [Example 87] | – | 13.4 | –
CC(C)(NC(=O)[C@@H]1CNCCO1)c1n[nH]c2c(Cl)cccc12 [Example 91] | > 2.17 | 3.4 | –
Cc1cccn2c(C(C)(C)NC(=O)[C@@H]3CNCCO3)ncc12 [Example 95] | > 2.17 | 4.5 | Ki (human SSTR3): 8690 nM; Ki (human SSTR5): 9770 nM; Ki (human SSTR2): 9630 nM; Ki (human SSTR1): 9480 nM; Ki (human SSTR4): 218 nM
CC(C)(NC(=O)[C@@H]1CNCCO1)c1ncc2c(Cl)cccn12 [Example 96] | > 2.17 | 13 | –
Cc1cccn2c(C3(NC(=O)[C@@H]4CNCCO4)CC3)ncc12 [Example 97] | – | 40.8 | –
Cc1cc(F)cn2c(C(C)(C)NC(=O)[C@@H]3CNCCO3)ncc12 [Example 100] | – | 103 | –
Cc1cccn2c(C3(NC(=O)[C@@H]4CNCCO4)CCC3)ncc12 [Example 102] | – | 31 | –
CC(C)(NC(=O)[C@@H]1CNCCO1)c1nc(C2CC2)c2c(F)cccn12 [Example 103] | – | 60.7 | –
Cc1cccn2c(C(C)(C)NC(=O)[C@@H]3CNCCO3)nc(C3CC3)c12 [Example 104] | – | 73.5 | –
Cc1cccn2c(C(C)(C)NC(=O)[C@@H]3CNCCO3)nnc12 [Example 105] | – | 596 | –
Cc1nc2ccccn2c1C(C)(C)NC(=O)[C@@H]1CNCCO1 [Example 106] | – | 230 | –
Cc1cccn2c(C(C)(C)NC(=O)[C@@H]3CNCCO3)cnc12 [Example 108] | – | 58.1 | –
Cc1cccn2c(C(C)(C)NC(=O)[C@@H]3CNCCO3)ccc12 [Example 109] | 1.4 | 3.7 | –
